The values that follow come from patent US20260263479A1, “KRAS G12D INHIBITORS AND USES THEREOF” (SUZHOU ZANRONG PHARMA LIMITED, priority 2023, published 2026).

The structures appear in SMILES notation.

The first data set deals with PANC-1 pERK. The data set can be described thus: Phospho-ERK 1/2 assay. It counts as cell-based. Particulars: Homo sapiens, PANC-1, 3 h, PANC-1 cells, 3 hours incubation with compound. On the procedure: Allow PNAC-1 cell growth in a T75 flask in DMEM and 10% 1 fetal calf serum (FCS; Gibco®), using standard tissue culture procedures until ~80% confluency is achieved. Day 1, seed 6000 cells/well in 384 well plate and incubate at 37° C., 5% CO2. Add diluted compound by Echo 550, final DMSO is 0.5%, incubate cells at 37° C., 5% CO2 for 3 hours. Then, remove medium and fix cells with 3.7% formaldehyde in PBS (PFA) by Apricot. Wash with PBS once. Permeabilize cells with cold 100% methanol and repeat wash once with PBS once. Add Li-Cor blocking buffer to each well and incubate 1.5 hours at RT. Remove blocking buffer and add primary antibody mixture (rabbit anti pERK, mouse anti GAPDH). Incubate at 4° C. overnight. Day 2, wash with PBST (Tween-20 in PBS) with total 3 times and then add secondary antibody mixture (goat anti rabbit 800CW (1:800 dilution in the combined solution) and goat anti mouse 680RD (1:800 dilution in the combined solution)), incubate for 60 minutes at RT away from light. Repeat washing with PBST 3 times. After final wash, centrifuge plate up-side-down at 1000 rpm to remove wash solution completely from wells. Before plate scanning, clean the bottom plate surface and the Odyssey® Imager scanning bed (if applicable) with moist, lint-free tissue to avoid any obstructions during scanning. Scan plate with detection in both 700 and 800 nm channels.
On to `C#Cc1c(F)ccc2cc(O)cc(-c3nc4c5c(cc(OC[C@@]67CCCN6CC(=C)C7)nc5c3F)N3C[C@H]5CC[C@H](N5)[C@H]3CO4)c12` [Example 2, 5-ethynyl-6-fluoro-4-((5aS,6S,9R)-1-fluoro-13-(((S)-2-methylenetetrahydro-1H-pyrrolizin-7a (5H)-yl)methoxy)-5a,6,7,8,9,10-hexahydro-5H-6,9-epiminoazepino[2′,1′: 3,4][1,4]oxazepino[5,6,7-de][1,6]naphthyridin-2-yl)naphthalen-2-ol], for which the half-inhibitory concentration (IC50) (in general, the concentration that gives 50% inhibition) was 14 nM.

As to `C#Cc1c(F)ccc2cc(O)cc(-c3nc4c5c(cc(OCC67CC(=C)CN6CC(=C)C7)nc5c3F)N3C[C@H]5CC[C@H](N5)[C@H]3CO4)c12` [Example 4, 4-((5aS,6S,9R)-13-((2,6-dimethylenetetrahydro-1H-pyrrolizin-7a (5H)-yl)methoxy)-1-fluoro-5a,6,7,8,9,10-hexahydro-5H-6,9-epiminoazepino[2′,1′: 3,4][1,4]oxazepino[5,6,7-de][1,6]naphthyridin-2-yl)-5-ethynyl-6-fluoronaphthalen-2-ol], the IC50 stood at 34 nM.

As to `C=C1CN2CCC[C@@]2(COc2cc3c4c(nc(-c5cc(O)cc6ccc(F)c(CC)c56)c(F)c4n2)OC[C@@H]2[C@@H]4CC[C@H](CN32)N4)C1` [Example 40, 5-ethyl-6-fluoro-4-((5aS,6S,9R)-1-fluoro-13-(((S)-2-methylenetetrahydro-1H-pyrrolizin-7a (5H)-yl)methoxy)-5a,6,7,8,9,10-hexahydro-5H-6,9-epiminoazepino[2′,1′: 3,4][1,4]oxazepino[5,6,7-de][1,6]naphthyridin-2-yl)naphthalen-2-ol], the IC50 was determined as 16 nM.

`C#Cc1c(F)ccc2cccc(-c3nc4c5c(cc(OC[C@@]67CCCN6CC(=C)C7)nc5c3F)N3C[C@H]5CC[C@H](N5)[C@H]3CO4)c12` [Example 78, (5aS,6S,9R)-2-(8-ethynyl-7-fluoronaphthalen-1-yl)-1-fluoro-13-(((S)-2-methylenetetrahydro-1H-pyrrolizin-7a (5H)-yl)methoxy)-5a,6,7,8,9,10-hexahydro-5H-6,9-epiminoazepino[2′,1′: 3,4][1,4]oxazepino[5,6,7-de][1,6]naphthyridine]: the IC50 worked out at 464 nM.

Take `C#Cc1c(F)ccc2cc(O)cc(-c3nc4c5c(cc(OC[C@@]67CCCN6C[C@H](F)C7)nc5c3F)N3C[C@H]5CC[C@H](N5)[C@H]3[C@H](C)O4)c12` [Example 565, 5-ethynyl-6-fluoro-4-((5S,5aS,6S,9R)-1-fluoro-13-(((2R,7aS)-2-fluorotetrahydro-1H-pyrrolizin-7a (5H)-yl)methoxy)-5-methyl-5a,6,7,8,9,10-hexahydro-5H-6,9-epiminoazepino[2′,1′: 3,4][1,4]oxazepino[5,6,7-de][1,6]naphthyridin-2-yl)naphthalen-2-ol]: the IC50 was 1.2 nM.

With `C#Cc1c(F)ccc2cc(O)cc(-c3nc4c5c(cc(OCC67CCCN6CC(=C)C7)nc5c3F)N3C[C@H]5CC[C@H](N5)[C@H]3[C@H](C)O4)c12` (some centres unmarked) [Example 566], the IC50 turned out to be 2.9 nM.

On to `C#Cc1c(F)ccc2cc(O)cc(-c3nc4c5c(cc(OCC67CC(=C)CN6CC(=C)C7)nc5c3F)N3C[C@H]5CC[C@H](N5)[C@H]3[C@H](C)O4)c12` [Example 567], for which the IC50 came out at 0.95 nM.

With `CCc1c(F)ccc2cc(O)cc(-c3nc4c5c(cc(OC[C@@]67CCCN6C[C@H](F)C7)nc5c3F)N3C[C@H]5CC[C@H](N5)[C@H]3[C@H](C)O4)c12` [Example 568, 5-ethyl-6-fluoro-4-((5S,5aS,6S,9R)-1-fluoro-13-(((2R,7aS)-2-fluorotetrahydro-1H-pyrrolizin-7a (5H)-yl)methoxy)-5-methyl-5a,6,7,8,9,10-hexahydro-5H-6,9-epiminoazepino[2′,1′: 3,4][1,4]oxazepino[5,6,7-de][1,6]naphthyridin-2-yl)naphthalen-2-ol], the IC50 turned out to be 5.6 nM.

In the case of `C=C1CN2CCCC2(COc2cc3c4c(nc(-c5cc(O)cc6ccc(F)c(CC)c56)c(F)c4n2)O[C@@H](C)[C@@H]2[C@@H]4CC[C@H](CN32)N4)C1` (some centres unmarked) [Example 569], the IC50 stood at 1.7 nM.

For the compound `C=C1CN2CC(=C)CC2(COc2cc3c4c(nc(-c5cc(O)cc6ccc(F)c(CC)c56)c(F)c4n2)O[C@@H](C)[C@@H]2[C@@H]4CC[C@H](CN32)N4)C1` [Example 570], the IC50 is 76 nM.

Regarding `C#Cc1c(F)ccc2cccc(-c3nc4c5c(cc(OC[C@@]67CCCN6C[C@H](F)C7)nc5c3F)N3C[C@H]5CC[C@H](N5)[C@H]3[C@H](C)O4)c12` [Example 571], the 50% inhibitory concentration (IC50) stood at 17 nM.

Turning to `C#Cc1c(F)ccc2cccc(-c3nc4c5c(cc(OCC67CCCN6CC(=C)C7)nc5c3F)N3C[C@H]5CC[C@H](N5)[C@H]3[C@H](C)O4)c12` (some centres unmarked) [Example 572], the IC50 came out at 14 nM.

Consider `Cc1cc(N)nc(-c2nc3c4c(cc(OC[C@@]56CCCN5C[C@H](F)C6)nc4c2F)N2C[C@H]4CC[C@H](N4)[C@H]2[C@H](C)O3)c1C(F)(F)F` [Example 574], for which the IC50 is 33 nM.

For `CCc1c(F)ccc2cc(O)cc(-c3nc4c5c(cc(OC[C@@]67CCCN6C/C(=C\F)C7)nc5c3F)N3C[C@H]5CC[C@H](N5)[C@H]3[C@H](C)O4)c12` [Example 601], the IC50 was 8.2 nM.

On to `C#Cc1c(F)ccc2cc(O)cc(-c3nc4c5c(cc(OC[C@@]67CCCN6C/C(=C\F)C7)nc5c3F)N3C[C@H]5CC[C@H](N5)[C@H]3[C@H](C)O4)c12` [Example 602], for which the IC50 is 1.5 nM.

Consider `C#Cc1c(F)ccc2cccc(-c3nc4c5c(cc(OC[C@@]67CCCN6C/C(=C/F)C7)nc5c3F)N3C[C@H]5CC[C@H](N5)[C@H]3[C@H](C)O4)c12` [Example 603], for which the 50% inhibitory concentration (IC50) amounted to 48 nM.

Take `C#Cc1c(F)ccc2cccc(-c3nc4c5c(cc(OC[C@@]67CCCN6CC6(CC6(F)F)C7)nc5c3F)N3C[C@H]5CC[C@H](N5)[C@H]3[C@H](C)O4)c12` (some centres unmarked) [Example 604]: the half-inhibitory concentration (IC50) stood at 184 nM.

`C=C1CN2CCC[C@@]2(COc2cc3c4c(nc(-c5cccc6ccc(F)c(CC)c56)c(F)c4n2)O[C@@H](C)[C@@H]2[C@@H]4CC[C@H](CN32)N4)C1` [Example 606]: the IC50 amounted to 246 nM.

As for `C#Cc1c(F)ccc2cccc(-c3nc4c5c(cc(OC[C@]67CC(=C)CN6C[C@@H](F)C7)nc5c3F)N3C[C@H]5CC[C@H](N5)[C@H]3[C@H](C)O4)c12` [Example 607], the concentration for half-maximal inhibition (IC50) was determined as 198 nM.

Regarding `C#Cc1c(F)ccc2cccc(-c3nc4c5c(cc(OC[C@@]67CC(=C)CN6C[C@H](F)C7)nc5c3F)N3C[C@H]5CC[C@H](N5)[C@H]3[C@H](C)O4)c12` [Example 608], the IC50 is 251 nM.

Turning to `C#Cc1c(F)ccc2cccc(-c3nc4c5c(cc(OC[C@@]67CC(=C)CN6C[C@H](OC)C7)nc5c3F)N3C[C@H]5CC[C@H](N5)[C@H]3[C@H](C)O4)c12` [Example 609], the IC50 was determined as 9.6 nM.

`C#Cc1c(F)ccc2cccc(-c3nc4c5c(cc(OCC6(CN7CCOC[C@H]7C)CC6)nc5c3F)N3C[C@H]5CC[C@H](N5)[C@H]3[C@H](C)O4)c12` [Example 611]: the IC50 was found to be 14 nM.

Turning to `Cc1cc(N)nc(-c2c(F)c3c4c(cc(OCC5(CN6CCOC[C@H]6C)CC5)nc4c2F)N2C[C@H]4CC[C@H](N4)[C@H]2[C@H](C)O3)c1C(F)(F)F` [Example 613a], the IC50 amounted to 111 nM.

As to `C#Cc1c(F)ccc2cc(O)cc(-c3nc4c5c(cc(OC[C@@]67CCCN6C[C@H](F)C7)nc5c3F)N3C[C@@]5(C)CC[C@H](N5)[C@H]3[C@H](C)O4)c12` [Example 614], the IC50 stood at 8.1 nM.

On to `CCc1c(F)ccc2cc(O)cc(-c3nc4c5c(cc(OC[C@@]67CCCN6C[C@H](F)C7)nc5c3F)N3C[C@@]5(C)CC[C@H](N5)[C@H]3[C@H](C)O4)c12` [Example 615], for which the IC50 came out at 25 nM.

Still in this data set, the particulars now being: PANC-1 cells, 3 hours incubation with compound.
Take `C#Cc1c(F)ccc2cc(O)cc(-c3c(F)c4c5c(cc(OC[C@@]67CCCN6C[C@H](F)C7)nc5c3F)N3C[C@H]5CC[C@H](N5)[C@H]3[C@H](C)O4)c12` (single isomer, unassigned) [Example 577a]: the IC50 came out at 0.68 nM.

As for `C#Cc1c(F)ccc2cc(O)cc(-c3c(F)c4c5c(cc(OC[C@@]67CCCN6C[C@H](F)C7)nc5c3F)N3C[C@H]5CC[C@H](N5)[C@H]3[C@H](C)O4)c12` (single isomer, unassigned) [Example 577b], the half-maximal inhibitory concentration (IC50) worked out at 23.1 nM.

In the case of `C#Cc1cccc2cccc(-c3nc4c5c(cc(OC[C@@]67CCCN6CC(=C)C7)nc5c3F)N3C[C@H]5CC[C@H](N5)[C@H]3[C@H](C)O4)c12` [Example 605], the IC50 stood at 25 nM.

In the case of `C=C1CN2CC(=C)CC2(COc2cc3c4c(nc(-c5cc(O)cc6ccc(F)c(CC)c56)c(F)c4n2)OC[C@@H]2[C@@H]4CC[C@H](CN32)N4)C1` [compound 42], the IC50 came out at 169 nM.

Another data set deals with T1, P-glycoprotein (Pgp) (Homo sapiens, UniProt P08183).
T1 construct: expressed in transfected cells; host or cells: MDCK-MDR1 cells
T1 sequence (P08183 whole entry): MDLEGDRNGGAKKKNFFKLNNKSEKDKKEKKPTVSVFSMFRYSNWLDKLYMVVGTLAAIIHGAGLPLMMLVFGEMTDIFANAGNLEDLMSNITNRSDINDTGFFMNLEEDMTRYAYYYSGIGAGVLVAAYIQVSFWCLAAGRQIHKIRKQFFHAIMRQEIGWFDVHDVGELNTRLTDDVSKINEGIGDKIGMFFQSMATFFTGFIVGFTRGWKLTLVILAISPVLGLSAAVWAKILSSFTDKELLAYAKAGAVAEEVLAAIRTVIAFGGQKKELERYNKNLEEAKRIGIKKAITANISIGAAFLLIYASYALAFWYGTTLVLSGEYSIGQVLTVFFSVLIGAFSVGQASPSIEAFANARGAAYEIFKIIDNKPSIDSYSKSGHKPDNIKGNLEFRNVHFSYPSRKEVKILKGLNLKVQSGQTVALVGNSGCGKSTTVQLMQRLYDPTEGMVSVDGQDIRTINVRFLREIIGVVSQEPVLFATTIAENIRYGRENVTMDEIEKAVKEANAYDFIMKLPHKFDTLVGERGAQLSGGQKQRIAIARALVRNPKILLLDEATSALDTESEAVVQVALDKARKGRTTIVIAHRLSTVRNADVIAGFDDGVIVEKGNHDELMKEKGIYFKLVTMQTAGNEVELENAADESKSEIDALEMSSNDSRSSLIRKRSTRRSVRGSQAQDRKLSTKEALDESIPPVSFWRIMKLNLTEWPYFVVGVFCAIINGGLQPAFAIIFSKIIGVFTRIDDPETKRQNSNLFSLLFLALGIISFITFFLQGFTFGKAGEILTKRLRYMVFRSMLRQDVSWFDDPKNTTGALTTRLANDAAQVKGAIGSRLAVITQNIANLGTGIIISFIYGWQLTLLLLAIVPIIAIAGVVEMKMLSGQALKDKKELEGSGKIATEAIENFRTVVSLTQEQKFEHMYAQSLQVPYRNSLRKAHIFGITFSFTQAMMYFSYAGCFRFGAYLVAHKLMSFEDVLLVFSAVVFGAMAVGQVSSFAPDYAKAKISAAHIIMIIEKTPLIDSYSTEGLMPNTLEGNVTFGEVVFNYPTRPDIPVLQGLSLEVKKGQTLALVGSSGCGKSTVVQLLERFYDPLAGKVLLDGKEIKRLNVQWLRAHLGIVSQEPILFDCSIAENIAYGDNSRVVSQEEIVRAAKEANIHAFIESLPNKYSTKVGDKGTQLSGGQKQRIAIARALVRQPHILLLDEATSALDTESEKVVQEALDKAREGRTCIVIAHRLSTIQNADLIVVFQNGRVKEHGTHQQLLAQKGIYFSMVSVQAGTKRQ
Kind of data set: MDCK-MDR1 Pgp assessment. It is filed as in vitro ADME. Particulars: dog, MDCK-MDR1 cells, 37° C., read-out: Pgp Efflux Ratio (Pexact). As to the method: Efflux transport mediated by P-glycoprotein (Pgp) was assessed by MDCK-MDR1 cells. The final concentrations of test compounds and control compound were at 1 μM. The multi-well insert plate was incubated at 37° C. for 2 hours. In order to reliably measure passive permeability coefficients, Pexact was reported, which automatically corrects for loss of compound.
On to `C#Cc1c(F)ccc2cc(O)cc(-c3nc4c5c(cc(OC[C@@]67CCCN6CC(=C)C7)nc5c3F)N3C[C@H]5CC[C@H](N5)[C@H]3CO4)c12` [Example 2, 5-ethynyl-6-fluoro-4-((5aS,6S,9R)-1-fluoro-13-(((S)-2-methylenetetrahydro-1H-pyrrolizin-7a (5H)-yl)methoxy)-5a,6,7,8,9,10-hexahydro-5H-6,9-epiminoazepino[2′,1′: 3,4][1,4]oxazepino[5,6,7-de][1,6]naphthyridin-2-yl)naphthalen-2-ol], for which the efflux ratio at 2 h, 1 μM stood at 5.37.

In the case of `C#Cc1c(F)ccc2cc(O)cc(-c3nc4c5c(cc(OC[C@@]67CCCN6C[C@H](F)C7)nc5c3F)N3C[C@H]5CC[C@H](N5)[C@H]3[C@H](C)O4)c12` [Example 565, 5-ethynyl-6-fluoro-4-((5S,5aS,6S,9R)-1-fluoro-13-(((2R,7aS)-2-fluorotetrahydro-1H-pyrrolizin-7a (5H)-yl)methoxy)-5-methyl-5a,6,7,8,9,10-hexahydro-5H-6,9-epiminoazepino[2′,1′: 3,4][1,4]oxazepino[5,6,7-de][1,6]naphthyridin-2-yl)naphthalen-2-ol], the efflux ratio at 2 h, 1 μM was 5.25.

Regarding `C#Cc1c(F)ccc2cc(O)cc(-c3nc4c5c(cc(OCC67CCCN6CC(=C)C7)nc5c3F)N3C[C@H]5CC[C@H](N5)[C@H]3[C@H](C)O4)c12` (some centres unmarked) [Example 566], the efflux ratio at 2 h, 1 μM stood at 13.
